Assay results as given in publication PMC12494099, “Discovery and Characterization of Novel IKZF1/3 Glue Degraders against Multiple Hematological Cancer Cell Lines” (Oncology Research, 2025).

Assays:
Assay type in all cases: cell-based
CRBN^−/− NCI-H929 cells = assay: Cell apoptosis assay, CRBN knockout cells
Procedure: […] NCI-H929 and MV-4-11 cells were seeded at a density of 1 × 10^6 cells/well in 6-well tissue culture-treated plates. […] On day 7, GFP-positive cells were sorted as single cells into 96-well plates. Isolated single-cell clones were screened via western blot analysis, using wild-type NCI-H929 or MV-4-11 cells as positive controls.
Cells (NCI-H929 and MV-4-11) were seeded at a density of 1 × 10^6 cells per well into 6-well dishes. […] Apoptosis was assessed using an Annexin V-FITC kit (#ab14085; Abcam, MA, USA) on a FACS Calibur Flow Cytometer (Becton Dickinson, Franklin Lakes, NJ, USA). […] Finally, the samples were analyzed using a FACS Calibur Flow Cytometer.

IKZF1-HiBiT = biological target: T1, IKZF1-HiBiT (Homo sapiens, UniProt Q13422+Q96SW2); assay: Quantitative degradation assay using the HiBiT system (HEK293T); conditions: for reduction in IKZF1: 1 μM, time course; for DC50 / Dmax: HEK293T IKZF1-HiBiT, 24 h; for Dmax: HEK-293T, read-out: maximal degradation (Dmax) on IKZF1
T1 construct: expressed in transfected cells; host or cells: HEK293T
Procedure: (§1) An in vitro quantitative degradation assay utilizing the HiBiT system was carried out as previously described. To evaluate the degradation of IKZF1, IKZF2, and IKZF3 proteins, HEK293T cell lines stably expressing IKZF1-, IKZF2-, IKZF3-, GSPT1- or CK1α-HiBiT were cultured in 96-well plates at 12,000 cells per well. […] After the treatment, cell lysis was carried out using the Nano-Glo HiBiT Lytic Detection System (#N3040, Promega). All lysis operations were strictly carried out according to the manufacturer’s specific protocol. Then, the SpectraMax iD3 instrument (Molecular Devices, San Jose, CA, USA) was used to detect the luminescent signals released by the HiBiT-tagged neosubstrates.

IKZF3-HiBiT = biological target: T2, IKZF3-HiBiT (Homo sapiens, UniProt Q96SW2+Q9UKT9); assay: as above; conditions: for reduction in IKZF3: 1 μM, time course; for DC50 / Dmax: HEK293T IKZF3-HiBiT, 24 h; for Dmax: HEK-293T, read-out: maximal degradation (Dmax) on IKZF3
T2 construct: expressed in transfected cells; host or cells: HEK293T
Procedure: as §1

IKZF2 = IKZF2 (Homo sapiens, UniProt Q9UKS7); assay: Immunoblot analysis of endogenous protein; design: endogenous in cells; host or cells: NCI-H929 and MV-4-11; conditions: NCI-H929 and MV-4-11 cells
Procedure: Cells (NCI-H929 and MV-4-11) were plated into 6-well plates. They were then treated with different concentrations (0, 0.01, 0.1, 1, 10 μM) of the compounds (MGD-A7, MGD-C9) or the designated time periods. Afterward, the cells were washed with phosphate-buffered saline (PBS, pH = 7.2–7.4, 1×). Next, they were lysed using RIPA buffer (#R0278-500ML, Sigma-Aldrich, MO, USA), and the cell lysates were precisely measured. Following this, the total protein lysates underwent 10% sodium dodecyl sulfate-polyacrylamide gel electrophoresis (SDS-PAGE). This method efficiently separated the proteins based on their molecular weights. Subsequently, the separated proteins were transferred onto a nitrocellulose membrane (#HATF00010, […], Madison, WI, USA). The membranes were then successively incubated with the indicated primary antibodies. […] The chemiluminescent signal was detected, and membrane images were captured with an Imaging system (Bio-Rad, Hercules, CA, USA). ImageJ analysis software (V1.8.0.112, National Institutes of Health, NIH, Bethesda, MD, USA) was employed to analyze the intensity of protein bands, aiming to quantify the relative expression levels of the target proteins. The half-maximal degradation concentration (DC50) value, which indicates the concentrations of test compounds showing 50% protein degradation efficacy, was calculated using GraphPad Prism 8.0.

[1] = system: control vector NCI-H929 cells; assay: Cell apoptosis assay, control vector cells
Procedure: […] NCI-H929 and MV-4-11 cells were seeded at a density of 1 × 10^6 cells/well in 6-well tissue culture-treated plates. According to the manufacturer’s protocol (Santa Cruz Biotechnology, Inc, Dallas, TX, USA), CRBN CRISPR/Cas9 knockout Plasmid (#sc-412142), CRBN HDR plasmid (#sc-412142-HDR), UltraCruz® Transfection Reagent (#sc-395739) were pre-mixed in Plasmid Transfection Medium (#sc-108062) at a 1:1:2 mass ratio, and cells were transiently transfected in a 37°C, 5% CO2 incubator. After 72 h of infection, the medium was replaced with complete medium containing 3 μg/mL puromycin for 5–7 days. On day 7, GFP-positive cells were sorted as single cells into 96-well plates. Isolated single-cell clones were screened via western blot analysis, using wild-type NCI-H929 or MV-4-11 cells as positive controls.
(§2) Cells (NCI-H929 and MV-4-11) were seeded at a density of 1 × 10^6 cells per well into 6-well dishes. […] Apoptosis was assessed using an Annexin V-FITC kit (#ab14085; Abcam, MA, USA) on a FACS Calibur Flow Cytometer (Becton Dickinson, Franklin Lakes, NJ, USA). For cell cycle analysis, cells were fixed in 75% ethanol (−20°C/overnight), washed with PBS (pH = 7.2–7.4, 1×), treated with RNase A (0.2 mg/mL, 37°C/30 min), stained with PI (10 μg/mL), and analyzed on the same instrument. Finally, the samples were analyzed using a FACS Calibur Flow Cytometer.

MV-4-11 = assay: Cell apoptosis assay (Annexin V flow cytometry)
Procedure: as §2

NCI-H929 = assay: Cell apoptosis assay (Annexin V flow cytometry); conditions: NCI-H929, 1 and 10 µM
Procedure: as §2

T2 sequence (Q9UKT9 whole entry): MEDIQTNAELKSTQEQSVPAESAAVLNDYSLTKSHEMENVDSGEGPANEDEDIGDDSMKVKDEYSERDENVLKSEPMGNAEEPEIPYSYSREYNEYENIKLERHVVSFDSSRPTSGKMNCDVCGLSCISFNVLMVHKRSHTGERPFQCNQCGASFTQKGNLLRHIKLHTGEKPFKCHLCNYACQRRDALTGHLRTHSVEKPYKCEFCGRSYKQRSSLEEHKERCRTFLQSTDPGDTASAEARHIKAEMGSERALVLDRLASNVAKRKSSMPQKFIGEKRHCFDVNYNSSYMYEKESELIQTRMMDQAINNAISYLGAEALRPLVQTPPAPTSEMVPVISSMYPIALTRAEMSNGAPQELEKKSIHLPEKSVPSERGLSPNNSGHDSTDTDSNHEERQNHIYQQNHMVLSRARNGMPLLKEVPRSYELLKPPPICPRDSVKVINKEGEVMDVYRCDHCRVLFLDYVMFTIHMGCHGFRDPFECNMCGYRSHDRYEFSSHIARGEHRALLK
T2 sequence (Q96SW2 whole entry): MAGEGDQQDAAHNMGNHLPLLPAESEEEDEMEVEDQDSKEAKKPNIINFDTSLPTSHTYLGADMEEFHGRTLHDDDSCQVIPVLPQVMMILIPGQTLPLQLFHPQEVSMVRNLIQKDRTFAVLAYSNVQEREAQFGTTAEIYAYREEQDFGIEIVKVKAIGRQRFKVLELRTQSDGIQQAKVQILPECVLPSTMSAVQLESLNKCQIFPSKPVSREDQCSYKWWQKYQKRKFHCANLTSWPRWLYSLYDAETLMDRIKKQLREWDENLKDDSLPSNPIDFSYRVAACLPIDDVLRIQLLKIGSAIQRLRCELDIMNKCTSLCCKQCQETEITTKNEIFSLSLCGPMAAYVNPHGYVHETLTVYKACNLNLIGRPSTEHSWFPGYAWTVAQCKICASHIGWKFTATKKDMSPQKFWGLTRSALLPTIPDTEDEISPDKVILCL
T2 sequence (Q16531 whole entry partner): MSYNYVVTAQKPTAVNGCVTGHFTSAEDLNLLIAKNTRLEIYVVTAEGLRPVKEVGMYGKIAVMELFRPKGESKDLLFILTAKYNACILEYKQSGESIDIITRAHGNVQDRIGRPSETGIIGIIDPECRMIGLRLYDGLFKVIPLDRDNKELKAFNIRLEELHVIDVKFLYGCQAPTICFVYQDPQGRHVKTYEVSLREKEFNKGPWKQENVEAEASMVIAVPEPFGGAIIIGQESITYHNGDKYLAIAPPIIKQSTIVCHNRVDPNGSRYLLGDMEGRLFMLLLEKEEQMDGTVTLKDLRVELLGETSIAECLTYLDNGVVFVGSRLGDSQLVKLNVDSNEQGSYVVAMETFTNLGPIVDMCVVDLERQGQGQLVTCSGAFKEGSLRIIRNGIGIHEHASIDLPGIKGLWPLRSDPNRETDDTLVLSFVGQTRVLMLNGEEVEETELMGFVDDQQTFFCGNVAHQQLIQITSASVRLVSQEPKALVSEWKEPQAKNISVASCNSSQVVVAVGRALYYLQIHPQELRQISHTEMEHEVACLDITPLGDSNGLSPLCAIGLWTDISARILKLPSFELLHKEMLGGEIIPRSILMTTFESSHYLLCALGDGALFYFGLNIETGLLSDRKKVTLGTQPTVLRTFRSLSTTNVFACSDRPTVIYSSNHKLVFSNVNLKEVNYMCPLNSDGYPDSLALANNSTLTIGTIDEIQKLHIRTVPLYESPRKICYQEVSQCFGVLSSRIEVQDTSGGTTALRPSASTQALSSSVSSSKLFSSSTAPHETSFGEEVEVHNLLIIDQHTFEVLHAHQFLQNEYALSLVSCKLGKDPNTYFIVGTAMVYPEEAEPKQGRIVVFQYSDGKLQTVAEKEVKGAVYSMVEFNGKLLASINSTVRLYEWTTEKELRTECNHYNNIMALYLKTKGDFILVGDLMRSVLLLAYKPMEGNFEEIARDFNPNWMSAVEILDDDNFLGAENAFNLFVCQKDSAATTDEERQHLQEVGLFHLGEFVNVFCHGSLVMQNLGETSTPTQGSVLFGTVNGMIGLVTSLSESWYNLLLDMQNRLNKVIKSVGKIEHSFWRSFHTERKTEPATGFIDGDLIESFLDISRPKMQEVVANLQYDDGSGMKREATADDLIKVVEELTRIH
T1 sequence (Q13422 whole entry): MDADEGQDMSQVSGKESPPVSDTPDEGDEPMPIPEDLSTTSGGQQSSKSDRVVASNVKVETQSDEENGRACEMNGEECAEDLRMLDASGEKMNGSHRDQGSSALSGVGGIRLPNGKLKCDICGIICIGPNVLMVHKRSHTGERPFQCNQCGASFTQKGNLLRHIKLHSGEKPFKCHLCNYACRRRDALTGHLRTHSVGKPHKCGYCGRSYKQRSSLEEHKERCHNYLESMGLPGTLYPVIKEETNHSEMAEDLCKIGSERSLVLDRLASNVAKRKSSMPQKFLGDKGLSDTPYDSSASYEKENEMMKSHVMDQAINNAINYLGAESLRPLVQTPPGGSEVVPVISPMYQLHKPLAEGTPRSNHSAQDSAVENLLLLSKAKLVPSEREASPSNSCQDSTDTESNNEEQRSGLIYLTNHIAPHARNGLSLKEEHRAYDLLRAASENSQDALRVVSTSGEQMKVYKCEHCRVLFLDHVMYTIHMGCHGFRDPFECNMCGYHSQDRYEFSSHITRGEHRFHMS
T1 sequence (Q96SW2 whole entry): as the sequence (Q96SW2 whole entry) above
T1 sequence (Q16531 whole entry partner): as the sequence (Q16531 whole entry partner) above
Chain of IKZF2 (Q96SW2 whole entry partner): as the sequence (Q96SW2 whole entry) above
Chain of IKZF2 (Q16531 whole entry partner): as the sequence (Q16531 whole entry partner) above
Chain of IKZF2 (Q9UKS7 whole entry): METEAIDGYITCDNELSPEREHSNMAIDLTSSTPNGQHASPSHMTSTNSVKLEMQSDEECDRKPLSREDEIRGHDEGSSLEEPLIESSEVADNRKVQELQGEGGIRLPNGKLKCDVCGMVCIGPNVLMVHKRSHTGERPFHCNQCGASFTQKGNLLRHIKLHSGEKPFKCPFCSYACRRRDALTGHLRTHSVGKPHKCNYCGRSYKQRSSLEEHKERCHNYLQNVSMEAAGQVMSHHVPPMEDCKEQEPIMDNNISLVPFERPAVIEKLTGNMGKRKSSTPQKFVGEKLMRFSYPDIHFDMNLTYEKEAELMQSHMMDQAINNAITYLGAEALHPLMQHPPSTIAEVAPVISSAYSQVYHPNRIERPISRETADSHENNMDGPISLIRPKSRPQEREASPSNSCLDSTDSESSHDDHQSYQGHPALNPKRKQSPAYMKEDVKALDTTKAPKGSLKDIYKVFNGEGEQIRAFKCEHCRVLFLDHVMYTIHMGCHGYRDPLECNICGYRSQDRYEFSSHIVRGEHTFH

Row | reduction in IKZF1 (IKZF1-HiBiT; 12 h) | DC50 (IKZF1-HiBiT) | Dmax (IKZF1-HiBiT) | reduction in IKZF3 (IKZF3-HiBiT; 12 h) | DC50 (IKZF3-HiBiT) | Dmax (IKZF3-HiBiT) | degradation on IKZF2 (IKZF2) | reduction in IKZF1 (IKZF1-HiBiT; 8 h) | reduction in IKZF3 (IKZF3-HiBiT; 8 h) | SMILES | apoptosis (in words) (CRBN^−/− NCI-H929 cells) | apoptosis (in words) [1] | apoptosis rate (MV-4-11; MV-4-11, 1 µM) | apoptosis rate (MV-4-11; MV-4-11, 10 µM) | apoptosis (in words) (NCI-H929)
1 | > 60% | 249 nM | 89.4% | > 80% | 110 nM | 86.4% | minimal degradation |  |  | CN1CCN(Cc2cccc(C(=O)NC3CCC(=O)NC3=O)c2)CC1 (stereo not drawn) [MGD-A7, N-(2,6-dioxopiperidin-3-yl)-3-((4-methylpiperazin-1-yl)methyl)benzamide] | neither compound elicited apoptosis | induced significant apoptosis | 22.5% | 36.6% | significantly induced apoptosis
2 |  | 96 nM | 90.3% |  | 57 nM | 92.1% | minimal degradation | > 60% | > 70% | CN1CCN(Cc2cccc(C(=O)NC3CCC(=O)NC3=O)c2F)C(=O)C1 (stereo not drawn) [MGD-C9, N-(2,6-dioxopiperidin-3-yl)-2-fluoro-3-((4-methyl-2-oxopiperazin-1-yl)methyl)benzamide] | neither compound elicited apoptosis | induced significant apoptosis | 26.0% | 40.7% | significantly induced apoptosis
